This note sets out measurements from ChEMBL document CHEMBL1152415, “Potent antitumor bifunctional DNA alkylating agents, synthesis and biological activities of 3a-aza-cyclopenta[a]indenes” (Bioorg Med Chem, 2009).

What is called IC50 is the concentration needed to halve the response being measured.

Calls of active or inactive are those of the source. No cut-off for these calls is given here.

The test system of data set [1] is CCRF-CEM. In words: Cytotoxicity against human vinblastine-resistant CCRF-CEM cells after 72 hrs by XTT assay. Format: functional, cell-based. Background: Tetrazolium assays rely on reduction of a dye to a coloured formazan, in cell work by metabolically active cells.
For data set [2], the system named is CCRF-CEM. In words: Cytotoxicity against human CCRF-CEM cells after 72 hrs by XTT assay. The note with it: read-out: IC50. Format: functional, cell-based.
Data set [3] concerns CCRF-CEM. In words: Cytotoxicity against human taxol-resistant CCRF-CEM cells after 72 hrs by XTT assay. Format: functional, cell-based.
Data set [4] deals with CCRF-CEM. In words: Cross-resistance, IC50 for human vinblastine-resistant CCRF-CEM cells to IC50 for human CCRF-CEM cells. Format: functional.
For data set [5], the system named is CCRF-CEM. In words: Cross-resistance, IC50 for human taxol-resistant CCRF-CEM cells to IC50 for human CCRF-CEM cells. It counts as functional.
The test system of data set [6] is MX1. In words: Cytotoxicity against human MX1 cells after 72 hrs by SRB assay. It counts as functional, cell-based. The note with it: MX1, 72 h. (The SRB assay estimates cell density from bound dye.)
Data set [7] deals with HCT-116. Briefly: Cytotoxicity against human HCT116 cells after 72 hrs by SRB assay. It counts as functional, cell-based. The note with it: HCT-116, 72 h.
Data set [8] is described as follows: Toxicity in athymic nu/nu mouse assessed as maximum tolerated dose. Format: organism-based. The following applies: in vivo, read-out: Activity.
For data set [9], the system named is MX1. In words: Antitumor activity in human MX1 cells xenografted athymic nu/nu mouse assessed as complete remission of tumor at 50 mg/kg, iv administered daily once for 3 days. Format: functional, organism-based. Set-up: dose 50 mg/kg. For orientation: Xenograft models place foreign cells or tissue in a host animal.
Data set [10] deals with MX1. Briefly: Antitumor activity in human MX1 cells xenografted athymic nu/nu mouse assessed as complete remission of tumor at 5 mg/kg, iv administered daily once for 3 days. It counts as functional, organism-based. Set-up: dose 5 mg/kg.
The test system of data set [11] is MX1. In words: Antitumor activity in human MX1 cells xenografted athymic nu/nu mouse assessed as complete remission of tumor at 18 mg/kg, iv administered daily twice for 2 days. Format: functional, organism-based. Set-up: dose 18 mg/kg.
The subject of data set [12] is MX1. Briefly: Antitumor activity in human MX1 cells xenografted athymic nu/nu mouse assessed as complete remission of tumor at 15 mg/kg, iv administered daily twice for 4 days. Set-up: dose 15 mg/kg. Format: functional, organism-based.
In data set [13] the test system is MX1. Briefly: Antitumor activity in human MX1 cells xenografted athymic nu/nu mouse assessed as complete remission of tumor at 15 mg/kg, iv administered daily twice for 4 days measured after 18 days of tumor implantation. Set-up: dose 15 mg/kg. Format: functional, organism-based.
For data set [14], the system named is Nucleic Acid. Briefly: Induction of pEGFP-N1 plasmid DNA interstrand cross-linking at 1 uM after 2 hrs by alkaline agarose gel shift assay. It counts as nucleic-acid assay.
For data set [15], the system named is Nucleic Acid. In words: Induction of pEGFP-N1 plasmid DNA interstrand cross-linking at 10 uM after 2 hrs by alkaline agarose gel shift assay. Format: nucleic-acid assay.
Data set [16] has as its system Nucleic Acid. Briefly: Induction of pEGFP-N1 plasmid DNA interstrand cross-linking at 20 uM after 2 hrs by alkaline agarose gel shift assay. Format: nucleic-acid assay.
The nature of data set [17]: Cytotoxicity against human H1299 cells after 72 hrs by WST-1 assay. It counts as functional, cell-based. The following applies: NCI-H1299, 72 h.
Data set [18] in a line: Cytotoxicity against human OECM1 cells after 72 hrs by WST-1 assay. It counts as functional, cell-based. The following applies: OECM1, 72 h.
Data set [19] has as its system PC-3. In words: Cytotoxicity against human PC3 cells after 72 hrs by WST-1 assay. It counts as functional, cell-based. The note with it: PC-3, 72 h.
A short description of data set [20]: Cytotoxicity against human U87 cells after 72 hrs by WST-1 assay. It counts as functional, cell-based, U-87MG ATCC. The following applies: U-87 MG.
For data set [21], the system named is MX1. In words: Antitumor activity in human MX1 cells xenografted athymic nu/nu mouse assessed as tumor re-growth at 18 mg/kg, iv administered daily twice for 2 days measured after 40 days of tumor implantation. It counts as functional, organism-based. Set-up: dose 18 mg/kg.
In data set [22] the test system is SK-OV-3. In words: Antitumor activity in human SKOV3 cells xenografted athymic nu/nu mouse assessed as tumor suppression at 20 mg/kg, iv administered daily once for 4 days measured after 22 days relative to control. It counts as functional.
Data set [23] relates to MX1. Briefly: Antitumor activity in human MX1 cells xenografted athymic nu/nu mouse assessed as complete remission of tumor at 50 mg/kg, iv administered daily once for 3 days measured after 24 days of tumor implantation. It counts as functional, organism-based. Set-up: dose 50 mg/kg.
Data set [24] has as its system MX1. Briefly: Antitumor activity in human MX1 cells xenografted athymic nu/nu mouse assessed as tumor re-growth at 50 mg/kg, iv administered daily once for 3 days measured after 24 days of tumor implantation. Set-up: dose 50 mg/kg. It counts as functional, organism-based.
Data set [25] concerns PC-3. Briefly: Antitumor activity in human PC3 cells xenografted athymic nu/nu mouse assessed as complete tumor suppression at 50 mg/kg, iv administered daily once for 4 days measured after day 14 to day 32. Format: functional, organism-based. Set-up: dose 50 mg/kg.
Data set [26] concerns Mus musculus. In words: Toxicity in human PC3 cells xenografted athymic nu/nu mouse assessed as weight loss at 50 mg/kg, iv administered daily once for 4 days measured after day 14 to day 32 relative to control. Set-up: dose 50 mg/kg, route intravenous. It counts as organism-based, PC-3. The note with it: in vivo, 96 h.
Data set [27] deals with SK-OV-3. Briefly: Antitumor activity in human SKOV3 cells xenografted athymic nu/nu mouse assessed as tumor suppression at 50 mg/kg, iv administered daily once for 3 days measured after 22 days relative to control. It counts as functional.

As for `CNC(=O)OCc1c(COC(=O)NC)c(-c2ccccc2OC)n2c1Cc1ccccc1-2`, the 50% inhibitory concentration (IC50) in [1] is 0.36 µM; in data set [2], 0.14 µM; in data set [3], 0.25 µM; in data set [6], 1.3 µM; in data set [7], 0.15 µM. In addition, the “Ratio IC50” value in data set [4] stood at 2.7; in data set [5], 1.8. Further, the MTD in [8] is 15 mg/kg. In addition, the outcome in data set [9], in data set [10], in data set [11], in data set [12], in [13] and in data set [14] was Active. Also, the result in data set [15] and in [16] was Active.
`Cc1c(CO)c(CO)c2n1-c1ccccc1C2`: the IC50 in data set [1] came out at 0.067 µM; in data set [2], 0.01 µM; in [3] it was 0.032 µM; in [6], 0.36 µM; in data set [7], 0.34 µM; in [17], 15.2 µM. Moreover, the values for the 50% inhibitory concentration (IC50) in data set [18], in data set [19] and in [20] were 0.86 µM, 19.7 µM and 19.3 µM, respectively. Further, in data set [8], the MTD turned out to be 18 mg/kg. Moreover, the outcome in data set [9], in data set [10], in data set [11], in data set [12], in data set [14] and in data set [15] was Active. Besides, the result in data set [16] was Active. Also, the result in data set [21] was inactive. The Activity in data set [22] is 53%.
`CCc1c(CO)c(CO)c2n1-c1ccccc1C2`: the IC50 in [1] turned out to be 0.23 µM; in data set [2], 0.36 µM; in data set [3] it was 0.14 µM; in data set [6], 1.1 µM; in [7], 0.83 µM; in data set [17], 14.1 µM. In addition, the IC50 amounted to 1.24 µM in [18], 16.6 µM in data set [19] and 18.2 µM in data set [20]. Besides, the “Ratio IC50” value in data set [4] was 0.64; in data set [5], 0.39. Also, the MTD in data set [8] came to 50 mg/kg. Further, the result in data set [9], in data set [10], in [11], in data set [12], in data set [23] and in data set [25] was Active. The result in data set [14], in data set [15] and in data set [16] was Active. Moreover, the result in [24] was inactive. Besides, the Activity in data set [26] is on record as 15%; in data set [27], 78%.
